A word on the CC50: it is the concentration giving 50% cytotoxicity. For orientation: EC50 means the midpoint of the concentration-response curve.

For 16 compounds, CC50 and EC50 results are on record in US20240166649A1, “DIHYDROPYRIMIDINE COMPOUND, PREPARATION METHOD THEREFOR AND APPLICATION THEREOF” (Shanghai Visonpharma Co., Ltd., priority 2021, published 2024).

Data set [1] is described as follows: Cytotoxicity assay (CellTiter Glo). The format is cell-based. The settings on record: human; HepG2.2.15 cells, five days post treatment. The protocol: The Invention Determined Cytotoxicity of the Compounds Against HepG2.2.15 Cells (Table 2)
HepG2.2.15 cells were seeded into 96-well plates (8000 cells per well) and cell viability was measured by the addition of 60 μL of CellTiter Glo reagent (Promega) five days post treatment with the compounds. Cell plates with CellTiter Glo added were shaken on a plate shaker for 20 min and then the chemiluminescence signal was stabilized at room temperature for 10 min. Chemiluminescence values were read using a microplate reader (Bio-TeK SYNERGY NEO2).
The concentration corresponding to 50% cytotoxicity (CC50) was fitted by graphpad prism software. The cytotoxicity was calculated by the formula: % Cytotoxicity=100−(chemiluminescence value of sample Well −average chemiluminescence value of blank medium column)/(average chemiluminescence value of DMSO column −average chemiluminescence value of blank medium column)*100
On the technique in general: ATP-based viability assays read luminescence as a measure of living cells.

The subject of data set [2] is HBV (hepatitis B virus) in HepG2.2.15 cells. Briefly: Cell-based anti-viral activity assay (HBV DNA in supernatant by quantitative PCR). The following applies: 120 h, anti-HBV activity, HepG2.2.15 cells, 5 days, read-out: EC50 (HepG2.2.15). The protocol: Cell-Based Anti-Viral Activity Assay
The Invention determined the anti-HBV (hepatitis B virus) activity of compounds in HepG2.2.15 cells (Table 1).
HepG2.2.15 is a cell line stably transfected with the HBV genome. HepG2.2.15 cells were cultured in DMEM (1X) with 10% fetal bovine serum (Corning), 100 U penicillin (Gibico), 100 μg/mL streptomycin (Gibico), 250 μg/mL geneticin (Gibco) and GlutaMAXTM-I medium (Invitrogen).
HepG2.2.15 cells were seeded into 96-well plates (4×10^4 cells in 100 μL of medium per well) and incubated overnight at 37° C. The test compounds were weighed and prepared as 10 mM stock solution with DMSO. The stock solutions of the compounds were diluted by a gradient of 3.16 times with DMSO, and then diluted by a gradient of 3.16 times with medium for 50 times. Finally, the diluted compound solutions were added to the cell plate with a total volume of 200 μL and the final DMSO concentration was 1%. The 96-well culture plates loaded with drugs were transferred to an incubator at 37° C. for 5 days. […] nucleic acid releasing agent was added to 96-well PCR reaction plate, and 2 μL of cell supernatant or HBV quantitative standards were added to the corresponding Wells. Centrifuged the plates to fully mix, and incubated at room temperature for 10 min to fully release nucleic acid. Quantified HBV DNA content by fluorescent quantitative PCR (CFX Connect Real-Time System) using Sanxiang Bio hepatitis B virus fluorescent quantitative diagnostic kit.
The standard curve was established by taking the logarithm of the copy number (IU/ml) of the HBV standard sample (log 10) as the abscordinate and the corresponding CT value as the ordinate. The copy number of the sample was calculated according to the corresponding CT of the positive sample and the standard curve, and the percentage of inhibition rate was calculated as follows: • % Inhibition=100-100*(sample HBV copy number−high concentration reference compound column HBV copy number)/DMSO column HBV copy number−high concentration reference compound column HBV copy number).

A value given as a limit tells only on which side of the number the result lay.

In the case of `CCOC(=O)C1=C(CN2CCN3C(=O)N(C45CC(C(=O)O)(C4)C5)C[C@@H]3C2)NC(c2nccs2)=N[C@H]1c1cccc(F)c1C` [Compound 1, 3-((S)-7-(((S)-5-(Ethoxycarbonyl)-6-(3-Fluoro-2-Methylphenyl)-2-(Thiazol-2-Yl)-3,6-Dihydropyrimidin-4-Yl)Methyl)-3-Oxohexahydroimidazo[1,5-a]Pyrazin-2(3H)-Yl)Bicyclo[1.1.1]Pentane-1-Carboxylic Acid], the CC50 at 5 days in data set [1] was above 50000 nM. Moreover, in data set [2], the EC50 came out at 33 nM. For `CCOC(=O)C1=C(CN2CCN3C(=O)N(C45CC(CO)(C4)C5)C[C@@H]3C2)NC(c2nccs2)=N[C@H]1c1cccc(F)c1C` [Compound 2, Ethyl (S)-4-(3-Fluoro-2-Methylphenyl)-6-(((S)-2-(3-(Hydroxymethyl)Bicyclo[1.1.1]Pentan-1-Yl)-3-Oxohexahydroimidazo[1,5-a]Pyrazin-7(1H)-Yl)Methyl)-2-(Thiazol-2-Yl)-1,4-Dihydropyrimidine-5-Carboxylate] the same measures were above 50000 nM and 3 nM.

Take `CCOC(=O)C1=C(CN2CCN3C(=O)N(CC45CC(C(=O)O)(C4)C5)C[C@@H]3C2)NC(c2nccs2)=N[C@H]1c1cccc(F)c1C` [Compound 5, 3-(((S)-7-(((S)-5-(Ethoxycarbonyl)-6-(3-Fluoro-2-Methylphenyl)-2-(Thiazol-2-Yl)-3,6-Dihydropyrimidin-4-Yl)Methyl)-3-Oxohexahydroimidazo[1,5-a]Pyrazin-2(3H)-Yl)Methyl)Bicyclo[1.1.1]Pentane-1-Carboxylic Acid]: in data set [1], the CC50 at 5 days was above 50000 nM. For the same compound, the EC50 in data set [2] amounted to 73 nM. On the same counts, the results for `CCOC(=O)C1=C(CN2CCN3C(=O)N(C45CC(C#N)(C4)C5)C[C@@H]3C2)NC(c2nccs2)=N[C@H]1c1cccc(F)c1C` [Compound 17, Ethyl (S)-6-(((S)-2-(3-Cyanobicyclo[1.1.1]Pentan-1-Yl)-3-Oxohexahydroimidazo[1,5-a]Pyrazin-7(1H)-Yl) Methyl)-4-(3-Fluoro-2-Methylphenyl)-2-(Thiazol-2-Yl)-1,4-Dihydropyrimidine-5-Carboxylate] are above 50000 nM and 5 nM. On the same counts, the results for `CCOC(=O)C1=C(CN2CCN3C(=O)N(C45CC(CF)(C4)C5)C[C@@H]3C2)NC(c2nccs2)=N[C@H]1c1cccc(F)c1C` [Compound 18, Ethyl (S)-4-(3-Fluoro-2-Methylphenyl)-6-(((S)-2-(3-(Fluoromethyl)Bicyclo[1.1.1]Pentan-1-Yl)-3-Oxohexahydroimidazo[1,5-a]Pyrazin-7(1H)-Yl)Methyl)-2-(Thiazol-2-Yl)-1,4-Dihydropyrimidine-5-Carboxylate] are above 50000 nM and 3 nM. For `CCOC(=O)C1=C(CN2CCN3C(=O)N(C45CC(C(=O)NS(C)(=O)=O)(C4)C5)C[C@@H]3C2)NC(c2nccs2)=N[C@H]1c1cccc(F)c1C` [Compound 28, Ethyl (S)-4-(3-Fluoro-2-Methylphenyl)-6-(((S)-2-(3-((Methylsulfonyl)Carbamoyl)Bicyclo[1.1.1]Pentan-1-Yl)-3-Oxohexahydroimidazo[1,5-a]Pyrazin-7(1H)-Yl)Methyl)-2-(Thiazol-2-Yl)-1,4-Dihydropyrimidine-5-Carboxylate] the same measures were above 50000 nM and 21 nM. Regarding `CCOC(=O)C1=C(CN2CCN3C(=O)N(C45CC(NS(=O)(=O)C6CC6)(C4)C5)C[C@@H]3C2)NC(c2nccs2)=N[C@H]1c1cccc(F)c1C` [Compound 29, Ethyl (S)-6-(((S)-2-(3-(Cyclopropanesulfonamido)Bicyclo[1.1.1]Pentan-1-Yl)-3-Oxohexahydroimidazo[1,5-a]Pyrazin-7(1H)-Yl)Methyl)-4-(3-Fluoro-2-Methylphenyl)-2-(Thiazol-2-Yl)-1,4-Dihydropyrimidine-5-Carboxylate], in data set [1], the CC50 at 5 days is above 50000 nM. Moreover, the EC50 in data set [2] was determined as 6 nM. On the same counts, the results for `CCOC(=O)C1=C(CN2CCN3C(=O)N(C45CC(CO)(C4)C5)C[C@@H]3[C@H]2C(=O)O)NC(c2nccs2)=N[C@H]1c1cccc(F)c1C` [Compound 33, (8S,8aR)-7-(((S)-5-(Ethoxycarbonyl)-6-(3-Fluoro-2-Methylphenyl)-2-(Thiazol-2-Yl)-3,6-Dihydropyrimidin-4-Yl)Methyl)-2-(3-(Hydroxymethyl)Bicyclo[1.1.1]Pentan-1-Yl)-3-Oxooctahydroimidazo[1,5-a]Pyrazine-8-Carboxylic Acid] are above 50000 nM and 202 nM. As for `CCOC(=O)C1=C(CN2CCN3C(=O)N(C45CC(CC(=O)O)(C4)C5)C[C@@H]3C2)NC(c2nccs2)=N[C@H]1c1ccc(F)cc1Cl` [Compound 35], the CC50 at 5 days in data set [1] is above 50000 nM. In data set [2], the EC50 worked out at 28 nM. Consider `CCOC(=O)C1=C(CN2CCN3C(=O)N(C45CC(CC(=O)O)(C4)C5)C[C@@H]3C2)NC(c2nccs2)=N[C@H]1c1ccc(F)cc1C` [Compound 37], for which the CC50 at 5 days in data set [1] is above 50000 nM. Also, the EC50 in data set [2] was found to be 18 nM. With `COC(=O)C1=C(CN2CCN3C(=O)N(C45CC(CC(=O)O)(C4)C5)C[C@@H]3C2)NC(c2nccs2)=N[C@H]1c1ccc(F)cc1Cl` [Compound 38, 2-(3-((S)-7-(((R)-6-(2-Chloro-4-Fluorophenyl)-5-(Methoxycarbonyl)-2-(Thiazol-2-Yl)-3,6-Dihydropyrimidin-4-Yl)Methyl)-3-Oxohexahydroimidazo[1,5-a]Pyrazin-2 (3H)-Yl)Bicyclo[1.1.1]Pentane-1-Yl)Acetic Acid], the CC50 at 5 days in data set [1] is above 50000 nM. In addition, in data set [2], the EC50 was determined as 43 nM. For `CCOC(=O)CC12CC(N3C[C@@H]4[C@@H](COC)N(CC5=C(C(=O)OCC)[C@H](c6cccc(F)c6C)N=C(c6nccs6)N5)CCN4C3=O)(C1)C2` [Compound 44, Ethyl (S)-6-(((8S,8aR)-2-(3-(2-Ethoxy-2-Oxoethyl)Bicyclo[1.1.1]Pentan-1-Yl)-8-(Methoxymethyl)-3-Oxohexahydroimidazo[1,5-a]Pyrazin-7(1H)-Yl)Methyl)-4-(3-Fluoro-2-Methylphenyl)-2-(Thiazol-2-Yl)-1,4-Dihydropyrimidine-5-Carboxylate], in data set [1], the CC50 at 5 days is above 50000 nM. Moreover, the EC50 in data set [2] stood at 183 nM. On the same counts, the results for `CCOC(=O)C1=C(CN2CCN3C(=O)N(C45CC(NS(C)(=O)=O)(C4)C5)C[C@@H]3[C@H]2C(=O)O)NC(c2nccs2)=N[C@H]1c1cccc(F)c1C` [Compound 46, (8S,8aR)-7-(((S)-5-(Ethoxycarbonyl)-6-(3-Fluoro-2-Methylphenyl)-2-(Thiazol-2-Yl)-3,6-Dihydropyrimidin-4-Yl)Methyl)-2-(3-(Methylsulfonamido)Bicyclo[1.1.1]Pentan-1-Yl)-3-Oxooctahydroimidazo [1,5-a]Pyrazine-8-Carboxylic Acid] are above 50000 nM and 61 nM. Take `CCOC(=O)C1=C(CN2CCN3C(=O)N(C45CCC(CC(=O)O)(CC4)C5)C[C@@H]3C2)NC(c2nccs2)=N[C@H]1c1cccc(F)c1C` [Compound 63, 2-(4-((S)-7-(((S)-5-(Ethoxycarbonyl)-6-(3-Fluoro-2-Methylphenyl)-2-(Thiazol-2-Yl)-3,6-Dihydropyrimidin-4-Yl)Methyl)-3-Oxohexahydroimidazo[1,5-a]Pyrazin-2(3H)-Yl)Bicyclo[2.2.1]Heptan-1-Yl)Acetic Acid]: the EC50 in data set [2] was found to be 26 nM. On the same count and under the same terms, the figure for `CCOC(=O)C1=C(CN2CCN3C(=O)N(C45CCC(CC(=O)O)(CC4)C5)C[C@@H]3C2)NC(c2nccs2)=N[C@H]1c1ccc(F)cc1C` [Compound 64, 2-(4-((S)-7-(((S)-5-(Ethoxycarbonyl)-6-(4-Fluoro-2-Methylphenyl)-2-(Thiazol-2-Yl)-3,6-Dihydropyrimidin-4-Yl)Methyl)-3-Oxohexahydroimidazo[1,5-a]Pyrazin-2(3H)-Yl)Bicyclo[2.2.1]Heptan-1-Yl)Acetic Acid] is 57 nM; for `CCOC(=O)C1=C(CN2CCN3C(=O)N(C45CCC(CC(=O)O)(CC4)C5)C[C@@H]3C2)NC(c2nccs2)=N[C@H]1c1ccc(F)cc1Cl` [Compound 65, 2-(4-((S)-7-(((R)-6-(2-Chloro-4-Fluorophenyl)-5-(Ethoxycarbonyl)-2-(Thiazol-2-Yl)-3,6-Dihydropyrimidin-4-Yl)Methyl)-3-Oxohexahydroimidazo[1,5-a]Pyrazin-2(3H)-Yl)Bicyclo[2.2.1]Heptan-1-Yl)Acetic Acid] it is 42 nM.
